What was measured:
Assay type in all cases: biochemical
PoptoCSE2 = molecular target: T1, PoptoCSE2 (Populus tomentosa, UniProt A0A0S1VWZ0); experiment: HPLC-MS, appearance of caffeic acid; details: 100 uM substrate, 100 mM sodium phosphate pH 7.5, 0.5 mM DTT, 30 C; substrate made enzymatically with PoptoHCT6
T1 construct: gene CSE2; full-length CDS cloned from cambial zone cDNA into pET28a, His-tagged, E. coli BL21(DE3), Ni-NTA
T1 sequence (A0A0S1VWZ0 1-326): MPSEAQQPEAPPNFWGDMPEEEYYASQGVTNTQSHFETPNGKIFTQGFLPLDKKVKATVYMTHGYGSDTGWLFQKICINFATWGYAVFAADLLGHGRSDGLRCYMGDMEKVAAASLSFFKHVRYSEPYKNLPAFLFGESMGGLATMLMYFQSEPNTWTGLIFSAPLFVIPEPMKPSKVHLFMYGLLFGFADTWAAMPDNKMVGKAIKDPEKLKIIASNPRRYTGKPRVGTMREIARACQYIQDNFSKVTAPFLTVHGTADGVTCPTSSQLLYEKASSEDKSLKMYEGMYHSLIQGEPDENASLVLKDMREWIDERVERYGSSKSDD

PoptoCSE1 = molecular target: T2, PoptoCSE1 (Populus tomentosa, UniProt A0A0S1VWX4); experiment: HPLC-MS, appearance of caffeic acid; details: 100 uM substrate, 100 mM sodium phosphate pH 7.5, 0.5 mM DTT, 30 C; substrate made enzymatically with PoptoHCT6
T2 construct: gene CSE1; full-length CDS cloned from cambial zone cDNA into pET28a, His-tagged, E. coli BL21(DE3), Ni-NTA
T2 sequence (A0A0S1VWX4 1-326): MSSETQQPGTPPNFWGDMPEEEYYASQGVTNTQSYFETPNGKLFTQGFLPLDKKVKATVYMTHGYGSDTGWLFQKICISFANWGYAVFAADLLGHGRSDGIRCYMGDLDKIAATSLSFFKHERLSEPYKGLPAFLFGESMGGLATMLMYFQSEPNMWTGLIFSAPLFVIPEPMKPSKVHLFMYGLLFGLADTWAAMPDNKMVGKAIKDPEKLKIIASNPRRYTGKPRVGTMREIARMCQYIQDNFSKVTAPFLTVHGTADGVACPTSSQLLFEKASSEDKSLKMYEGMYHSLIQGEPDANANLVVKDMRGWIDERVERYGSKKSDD

PoptoHCT6 = molecular target: T3, PoptoHCT6 (Populus tomentosa, UniProt A0A0S1VWY1); experiment: preparative enzymatic synthesis of caffeoyl shikimate
T3 construct: gene HCT6; cloned from cambial zone cDNA into pET28a, His-tagged, E. coli BL21(DE3), Ni-NTA
T3 sequence (A0A0S1VWY1 1-431): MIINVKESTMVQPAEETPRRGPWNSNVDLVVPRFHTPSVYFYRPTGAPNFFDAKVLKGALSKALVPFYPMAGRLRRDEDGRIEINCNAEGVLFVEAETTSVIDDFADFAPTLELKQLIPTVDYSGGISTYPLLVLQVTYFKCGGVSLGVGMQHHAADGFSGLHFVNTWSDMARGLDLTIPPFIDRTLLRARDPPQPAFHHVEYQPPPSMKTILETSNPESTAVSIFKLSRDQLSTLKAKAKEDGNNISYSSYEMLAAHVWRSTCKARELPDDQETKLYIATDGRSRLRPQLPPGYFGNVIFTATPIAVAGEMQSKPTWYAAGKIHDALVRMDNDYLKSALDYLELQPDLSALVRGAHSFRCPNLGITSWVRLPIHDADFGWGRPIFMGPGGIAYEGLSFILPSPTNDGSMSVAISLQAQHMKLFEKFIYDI

O=C(/C=C/c1ccc(O)c(O)c1)O[C@@H]1CC(C(=O)O)=C[C@@H](O)[C@H]1O [caffeoyl shikimate]
HPLC-MS, appearance of caffeic acid (PoptoCSE2): PoptoCSE1 and PoptoCSE2 have detectable activity against caffeoyl shikimate
HPLC-MS, appearance of caffeic acid (PoptoCSE1): PoptoCSE1 and PoptoCSE2 have detectable activity against caffeoyl shikimate

CC(C)(COP(=O)(O)OP(=O)(O)OC[C@H]1O[C@@H](n2cnc3c(N)ncnc32)[C@H](O)[C@@H]1OP(=O)(O)O)[C@@H](O)C(=O)NCCC(=O)NCCSC(=O)/C=C/c1ccc(O)c(O)c1 [caffeoyl-CoA]
preparative enzymatic synthesis of caffeoyl shikimate (PoptoHCT6; co-substrate shikimic acid): caffeoyl shikimate using enzymatic reaction catalyzed by purified recombinant PoptoHCT6 with caffeoyl-CoA and shikimic acid

O=C(O)C1=C[C@@H](O)[C@@H](O)[C@H](O)C1 [shikimic acid]
preparative enzymatic synthesis of caffeoyl shikimate (PoptoHCT6; co-substrate caffeoyl-CoA): caffeoyl shikimate using enzymatic reaction catalyzed by purified recombinant PoptoHCT6 with caffeoyl-CoA and shikimic acid
